Tests used:
[1] = test system: linear 32P-end-labelled HexA DNA; assay: DNA interstrand cross-linking assay (denaturing polyacrylamide gel); type: biochemical; details: overnight incubation at 37° C.
Procedure: The ability of 26 and 34 to cross-link DNA was determined using an assay involving linear double-stranded HexA. TyrT and MS1 DNA fragments (FIG. 5).
Following denaturation conditions (treatment with formamide and heating at 65° C. for 5 min) the DNA strands were completely separated (see control C2, FIG. 6). The presence of an interstrand cross-link holds the denatured strands in close proximity, and cross-linked adducts therefore run as double-stranded DNA on polyacrylamide gel. Talirine and 34 were tested at >10 different concentrations, and the assay was repeated twice. […] C1 and C2 represent controls where C1 is DNA without formic acid, and C2 is DNA without formic acid, but heated thereby forming single strands. Cross-links are clearly detectable at concentrations as low as 10 nM. Using the same assay, the PBD dimer Talirine was also shown to cross-link DNA down to a concentration of 10 nM (FIG. 7).
The preparation of the DNA fragments (FIG. 5) has been previously described^[4]. Briefly, the sequence which had been cloned into the BamHI site of pUC18 was obtained by cutting with HindIII and EcoRI. Radiolabelled DNA fragments were prepared by filling in the 3′-end of the HindIII site with [α-^32P]dATP using Klenow DNA polymerase (exo-).
The radiolabelled DNA fragment was separated from the remainder of the plasmid DNA on a 6% non-denaturing polyacrylamide gel. […]

[2] = test system: HexA and MS1 DNA fragments; assay: DNA footprinting; type: binding; details: X is any base, Y is G or C, W is A or T; overnight incubation
Procedure: The sequence selectivity of 26 and 34 was investigated using a modification of the previously established DNA footprinting assay^25. Following an overnight incubation of the ligand-DNA complexes, the mixture was mixed with strand separation buffer containing 10 mM EDTA, 10 mM NaOH, 0.1% bromophenol blue, 80% formamide and incubated at 100° C. for 3 min. The mixture was then immediately cooled on ice and run on an 8% denaturing gel.
Footprinting reactions were performed as previously described^[5] using the DNA fragments HexA and HexB, which together contain all 64 symmetrical hexanucleotide sequences^[6], and MS1 that contains all possible […] tetranucleotide sequences^[7]. The DNA fragments were obtained by cutting the parent plasmids with HindIII and SacI (for HexA and MS1) or EcoRI and PstI (for HexB), and were labelled at the 3′-end of the HindIII or EcoRI sites with [α-^32P]dATP using reverse transcriptase or exo-Klenow fragment. After gel purification, the radiolabelled DNA was dissolved in 10 mM Tris-HCl pH 7.5 containing 0.1 mM EDTA, at a concentration of about 10 c.p.s per μL as determined on a hand held Geiger counter. 1.5 μL of radiolabelled DNA was mixed with 1.5 μL ligand that had been freshly diluted in 10 mM Tris-HCl pH 7.5, containing 10 mM NaCl. […]

CNS(=O)(=O)c1ccc(C2=CCN3C(=O)c4cc(OC)c(OCc5cccc(COc6cc7c(cc6OC)C(=O)N6CC=C(c8ccc(S(=O)(=O)NC)cc8)C[C@H]6C=N7)n5)cc4N=C[C@@H]3C2)cc1 [Compound 34, 4,4′-((6aS,6a′S)-((Pyridine-2,6-diylbis(methylene))bis(oxy))bis(2-methoxy-12-oxo-6a,7,10,12-tetrahydrobenzo[e]pyrido[1,2-α][1,4]diazepine-3,8-diyl))bis(N-methylbenzenesulfonamide)]
lowest concentration at which DNA interstrand cross-links are detectable [1]: 10 nM | general code of the footprints (preferred binding sites) [2]: XYWWYWYX
